Data set [1] can be described thus: Tolerance of oral dosing of S10. The format is in vivo. The settings on record: 20 mg/kg/day oral gavage for one week, weight loss and signs of distress.
Data set [2] has as its system S10-resistant GSCs (U3013MG). The data set is described as follows: Viability of S10-resistant GSCs surviving the shRNA screen. The format is cell-based. The settings on record: Homo sapiens, cells surviving 14 μM S10 after shRNA library transduction, read-out: EC50 on GSC viability, S10-resistant GSCs. The text has this:
A genome wide screen with shRNA libraries was used to identify pathways for S10 induced macropinocytosis. The approach was based on the idea that depleting a key factor in the pathway should render GSCs refractive to S10 induced death. Three different DECIPHER pooled lentiviral shRNA libraries consisting of 82500 shRNA covering 15377 genes grouped into Human Module 1 (genes associated with various signaling pathways), Human Module 2 (disease-associated genes) and Human Module 3 (genes associated with cell surface, extracellular and DNA binding), were used to transduce U3013MG GSCs. Four days later, 14 μM S10 was added for one day after which cells were cultured in standard medium for five month. Surviving cells were thereafter dissociated and further expanded. […] Phospho-MKK4 increased within 5 min of S10 exposure and remained at similar levels for at least 26 hrs of stimulation. Abrogation of MAP2K4 activity by five independent shRNAs led to marked increase of the EC50 viability value of S10-treated GSC. […] MKK4 was thereafter confirmed as a required protein for S10 induced macropinocytosis. […] Thus, the distinctive feature of susceptibility to macropinocytosis and death in GSCs require MKK4 activity.
GSCs grown to 70% confluency were transduced by DECIPHER pooled lentiviral shRNA libraries consisting of Human Module 1, 2 and 3 using earlier described protocols (Pasini et al., 2008). […]

A further data set has as its system zebrafish embryos. The settings on record: in vivo. On the procedure:
To assess the selectivity of compounds on mixed cultures consisting of GSC with other cell types, a hanging drop-based mixed culture procedure was developed. U3013MG GSCs were labeled with a cell tracker red and fibroblasts with a cell tracker green fluorescent dye for co-cultures to assess selective effects on glioma cells (glioblastoma) in a mixed culture setting. Cells organized in layers in the absence of compounds.
A zebrafish model was used to assess the developmental and cardiac toxicity of advanced hits from the screen. For the developmental toxicity experiment, zebrafish embryos at one-cell stage were distributed into a 96 well plate (3 embryos per well in 200 μl of egg water) and exposed to DMSO as a control or various concentration of compounds. The egg water (with or without compound) was replaced every 6 hrs and the embryos were allowed to grow for three days. The embryos were monitored every day and allowed to grow for 5 days before the phenotype was recorded. For the cardiotoxicity assay, an ex vivo culture of adult hearts was performed according to our previously published procedure (Kitambi et al., (2012) BMC Physiol. 12, 3). Adult hearts from male zebrafish were exposed to compounds and the effect on the heart beat was recorded and analysed using developed methods (Kitambi et al., (2012) BMC Physiol. 12, 3).

Data set [3] is described as follows: Pharmacokinetic evaluation of Vacquinol-1 stereoisomers, plasma and brain. The format is in vivo, NMRI (SR/RS) or BALB/c (Vrac) mice. The settings on record: for Cmax Brain / tlast Brain / tlast Plasma / AUC(0-t) / half-life / Tmax / Cmax: mice. The procedure: The pharmacokinetics of Vacquinol-1 (racemic), Vacquinol-1RS and Vacquinol-1SR, were determined in NMRI (SR/RS) or BALB/c (Vrac) mice following single intravenous (i.v.) or per oral (p.o) administration of 2 or 20 mg/kg Vacquinol-1, respectively. Blood and brain samples were taken from animals at the following nominal time points: 15, 30, and 60 minutes, and 2, 4, 6, 8, 24, 48, 72 and 144 hours after dosing (n=3/time-point). Bioanalytical quantification of Vacquinol-1 was analysed in plasma and brain samples by a UPLC-MS/MS.
Pharmacokinetics were calculated by non-compartmental analysis (NCA) from composite (mean) profiles. Nominal sampling times and dose levels have been used for the NCA calculations.

Read-outs that look alike come from different tables or passages of the source.

By EC50 is commonly meant the concentration giving half of the maximal effect. As usually defined, the Tmax is the time at which the peak concentration occurs. Usually Cmax stands for the maximum level reached in the sampled fluid or tissue. For `OC(c1cc(-c2ccc(Cl)cc2)nc2ccccc12)C1CCCCN1` (racemic) [Compound S10, (2-(4-chlorophenyl)quinolin-4-yl)(piperidin-2-yl)methanol], the “tolerance of oral dosing” value in data set [1] was “well tolerated”. In addition, the EC50 in data set [2] was 14.3 ± 1.16 µM. Besides, the “effect on zebrafish development” value in the data set on zebrafish embryos is given as “did not exert any effect of zebrafish development”. Moreover, the “Cmax Brain” value in data set [3] (2 mg/kg i.v.) worked out at 514 ng/mL; in data set [3] (20 mg/kg p.o.), 1860 ng/mL. Moreover, the “tlast Brain” value in data set [3] (2 mg/kg i.v.) and in data set [3] (20 mg/kg p.o.) was 144 h in each case. The “tlast Plasma” value in data set [3] (2 mg/kg i.v.) and in data set [3] (20 mg/kg p.o.) was 144 h throughout. In data set [3] (NMRI (single stereoisomers SR/RS), BALB/c (racemate), mouse, brain and plasma, 20 mg/kg, after oral dosing, read-out: relative brain/plasma exposure ratio (AUClast(brain)/AUClast(plasma))), the Kp amounted to 0.6. Further, the AUC(0-t) amounted to 20.4 µg·h/mL in data set [3] (NMRI (single stereoisomers SR/RS), BALB/c (racemate), mouse, brain, iv, 2 mg/kg i.v., read-out: AUClast Brain); 167 µg·h/mL in data set [3] (NMRI (single stereoisomers SR/RS), BALB/c (racemate), mouse, brain, po, 20 mg/kg p.o., read-out: AUClast Brain); 64.5 µg·h/mL in data set [3] (NMRI (single stereoisomers SR/RS), BALB/c (racemate), mouse, plasma, iv, 2 mg/kg i.v., read-out: AUClast Plasma); 292 µg·h/mL in data set [3] (NMRI (single stereoisomers SR/RS), BALB/c (racemate), mouse, plasma, po, 20 mg/kg p.o., read-out: AUClast Plasma). The half-life was 63 h in data set [3] (NMRI (single stereoisomers SR/RS), BALB/c (racemate), mouse, brain, iv, 2 mg/kg i.v., read-out: t1/2 Brain (converted)) and 52 h in data set [3] (NMRI (single stereoisomers SR/RS), BALB/c (racemate), mouse, plasma, iv, 2 mg/kg i.v., read-out: t1/2 Plasma (converted)). Further, the Tmax in data set [3] (NMRI (single stereoisomers SR/RS), BALB/c (racemate), mouse, brain, po, 20 mg/kg p.o., read-out: tmax Brain) turned out to be 48 h; in data set [3] (NMRI (single stereoisomers SR/RS), BALB/c (racemate), mouse, plasma, po, 20 mg/kg p.o., read-out: tmax Plasma) it was 24 h. Also, the Cmax in data set [3] (NMRI (single stereoisomers SR/RS), BALB/c (racemate), mouse, plasma, iv, 2 mg/kg i.v.) was determined as 467 ng/mL; in data set [3] (NMRI (single stereoisomers SR/RS), BALB/c (racemate), mouse, plasma, po, 20 mg/kg p.o.), 3280 ng/mL. Further, the “Cmax exposures ratio (Cmax(brain)/Cmax(plasma))” value in data set [3] (after oral dosing) was found to be 0.6.
